Where two headings read alike, the source gives them in different places.
What was measured:
[1] = molecular target: T1, P450 1B1 (Homo sapiens, UniProt Q16678, L432V); conditions: 10 nM P450, 2.5 µM procarcinogen, means ± range of duplicate experiments
T1 sequence (Q16678 1-543 L432V): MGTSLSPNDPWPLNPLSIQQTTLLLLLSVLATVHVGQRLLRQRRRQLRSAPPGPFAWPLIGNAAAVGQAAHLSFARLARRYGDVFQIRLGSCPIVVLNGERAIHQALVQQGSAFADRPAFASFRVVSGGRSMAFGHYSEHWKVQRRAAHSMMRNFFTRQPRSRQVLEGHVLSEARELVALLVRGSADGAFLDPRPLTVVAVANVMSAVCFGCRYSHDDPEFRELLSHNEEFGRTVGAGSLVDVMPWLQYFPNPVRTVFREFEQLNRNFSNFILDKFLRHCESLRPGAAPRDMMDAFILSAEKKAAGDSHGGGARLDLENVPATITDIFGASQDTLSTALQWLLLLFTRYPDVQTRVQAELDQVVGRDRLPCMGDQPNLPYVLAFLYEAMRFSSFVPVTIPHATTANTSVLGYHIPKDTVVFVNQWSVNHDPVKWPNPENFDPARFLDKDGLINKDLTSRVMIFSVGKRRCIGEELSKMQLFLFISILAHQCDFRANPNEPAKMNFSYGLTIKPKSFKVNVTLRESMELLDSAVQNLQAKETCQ

[2] = molecular target: T2, human P450 2A13 (Homo sapiens, UniProt Q16696); conditions: 10 nM P450, 2.5 µM procarcinogen, means ± range of duplicate experiments
T2 sequence (Q16696 31-494 limits assumed): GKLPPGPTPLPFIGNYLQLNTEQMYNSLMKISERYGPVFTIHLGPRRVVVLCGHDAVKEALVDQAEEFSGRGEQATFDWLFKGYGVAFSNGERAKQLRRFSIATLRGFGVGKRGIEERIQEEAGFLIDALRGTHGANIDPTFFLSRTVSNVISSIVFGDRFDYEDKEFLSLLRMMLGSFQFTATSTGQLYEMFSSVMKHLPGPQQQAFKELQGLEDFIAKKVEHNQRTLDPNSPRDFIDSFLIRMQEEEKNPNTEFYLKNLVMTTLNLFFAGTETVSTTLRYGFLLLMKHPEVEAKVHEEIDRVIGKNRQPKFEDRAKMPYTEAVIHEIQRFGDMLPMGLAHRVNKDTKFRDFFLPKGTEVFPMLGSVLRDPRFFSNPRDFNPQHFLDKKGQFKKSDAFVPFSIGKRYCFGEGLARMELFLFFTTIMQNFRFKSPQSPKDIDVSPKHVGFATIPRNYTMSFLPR

[3] = molecular target: T3, P450 2A6 (Homo sapiens, UniProt P11509); conditions: 10 nM P450, 2.5 µM procarcinogen, means ± range of duplicate experiments
T3 sequence (P11509 1-494): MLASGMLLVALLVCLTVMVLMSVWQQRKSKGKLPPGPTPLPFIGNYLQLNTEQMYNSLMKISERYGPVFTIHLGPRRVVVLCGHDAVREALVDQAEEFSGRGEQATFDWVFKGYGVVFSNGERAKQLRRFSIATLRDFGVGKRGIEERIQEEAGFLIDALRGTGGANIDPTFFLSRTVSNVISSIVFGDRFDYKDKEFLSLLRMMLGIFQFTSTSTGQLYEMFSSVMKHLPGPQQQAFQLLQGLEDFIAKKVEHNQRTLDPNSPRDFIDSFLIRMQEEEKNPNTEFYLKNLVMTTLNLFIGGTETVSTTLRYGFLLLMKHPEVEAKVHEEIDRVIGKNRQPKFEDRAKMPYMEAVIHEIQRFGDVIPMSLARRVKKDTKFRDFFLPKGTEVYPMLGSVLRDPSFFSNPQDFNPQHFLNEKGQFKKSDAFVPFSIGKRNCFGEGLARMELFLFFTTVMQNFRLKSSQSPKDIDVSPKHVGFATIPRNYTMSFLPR

[4] = molecular target: T1, P450 1B1; test: Spectral binding titration with purified P450 1B1
[5] = molecular target: T4, P450 2A13 (Homo sapiens, UniProt Q16696); test: Spectral binding titration with purified P450 2A13
T4 sequence (Q16696 with tags, fused parts or gaps limits assumed): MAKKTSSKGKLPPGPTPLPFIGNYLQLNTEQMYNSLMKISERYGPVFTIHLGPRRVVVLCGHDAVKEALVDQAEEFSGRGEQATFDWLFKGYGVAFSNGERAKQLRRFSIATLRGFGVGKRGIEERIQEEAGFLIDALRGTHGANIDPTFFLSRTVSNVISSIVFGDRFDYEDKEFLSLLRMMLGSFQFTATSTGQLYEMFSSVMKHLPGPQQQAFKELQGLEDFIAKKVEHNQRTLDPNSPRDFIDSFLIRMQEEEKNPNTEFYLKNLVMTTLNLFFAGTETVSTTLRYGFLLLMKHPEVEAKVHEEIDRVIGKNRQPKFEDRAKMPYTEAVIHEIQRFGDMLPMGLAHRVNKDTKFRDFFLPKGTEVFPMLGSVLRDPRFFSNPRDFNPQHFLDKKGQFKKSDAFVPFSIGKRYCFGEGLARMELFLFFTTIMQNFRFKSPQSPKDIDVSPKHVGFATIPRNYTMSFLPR

[6] = molecular target: T3, P450 2A6; test: Spectral binding titration with purified P450 2A6
[7] = P450 1B1, Reverse Type I spectra
[8] = P450 1B1, Reverse Type I spectra, ± SE
[9] = P450 2A13, Type I spectra, ± SE

| Compound | activation of procarcinogens umu gene expression [1] | activation of procarcinogens umu gene expression [2] | activation of procarcinogens umu gene expression [3] | Kd [4] | Kd [5] | ΔAmax/ Ks [4, 7] | ΔAmax [4, 8] | Kd [6] | other results |
| --- | --- | --- | --- | --- | --- | --- | --- | --- | --- |
| OC1C=Cc2c(ccc3ccc4ccccc4c23)C1O (stereo not drawn) [B[c]Phe-3,4-diol, 3,4-dihydroxy-3,4-dihydrobenzo[c]phenanthrene] | 140 ± 21 units/min/nmol P450 | 45 ± 8 units/min/nmol P450 | 33 ± 10 units/min/nmol P450 | > 20 µM | > 20 µM |  |  |  |  |
| OC1C=Cc2c(ccc3c4ccccc4c4ccccc4c23)C1O (stereo not drawn) [B[g]C-11,12-diol, 11,12-dihydroxy-11,12-dihydrobenzo[g]chrysene] | 207 ± 25 units/min/nmol P450 | <10 units/min/nmol P450 | <10 units/min/nmol P450 |  |  |  |  |  |  |
| Cc1c2c(c(C)c3ccccc13)C(O)C(O)c1ccccc1-2 (stereo not drawn) [7,12-DMBA-5,6-diol, 5,6-dihydroxy-5,6-dihydro-7,12-dimethylbenz[a]anthracene] |  |  |  | 38 ± 3.7 µM |  | 0.0012 | 0.044 ± 0.003 |  |  |
| c1ccc2c(c1)ccc1ccc3ccccc3c12 [B[c]Phe, benzo[c]phenanthrene] | 25 ± 10 units/min/nmol P450 | 55 ± 11 units/min/nmol P450 | 22 ± 8 units/min/nmol P450 | 2.5 ± 0.31 µM | 1.1 ± 0.44 µM | 0.016 | 0.039 ± 0.001 | > 20 µM | ΔAmax/ Ks ([5]; P450 2A13, Type I spectra): 0.045; ΔAmax [5, 9]: 0.049 ± 0.005 |
| CC(=O)Nc1ccc2c(c1)Cc1ccccc1-2 [2-AAF, 2-acetamidofluorene] | <10 units/min/nmol P450 | <10 units/min/nmol P450 | <10 units/min/nmol P450 | 20 ± 7.8 µM |  | 0.0018 | 0.035 ± 0.009 |  |  |
| c1ccc2c(c1)cc1ccc3cccc4ccc2c1c34 [B[a]P, benzo[a]pyrene] |  |  |  | > 20 µM | > 20 µM |  |  | > 20 µM |  |
| OC1C=Cc2c(ccc3c2ccc2ccccc23)C1O (stereo not drawn) [chrysene-1,2-diol, 1,2-dihydroxy-1,2-dihydrochrysene] | 220 ± 19 units/min/nmol P450 | <10 units/min/nmol P450 | <10 units/min/nmol P450 | > 20 µM | > 20 µM |  |  |  |  |
| Cc1cc2ccccc2c2ccc3c(c12)C=CC(O)C3O (stereo not drawn) [5MeCh-1,2-diol, 1,2-dihydroxy-1,2-dihydro-5-methylchrysene] | 2600 ± 180 units/min/nmol P450 | 86 ± 15 units/min/nmol P450 | 52 ± 11 units/min/nmol P450 | > 20 µM | > 20 µM |  |  |  |  |
| OC1c2cccc3ccc4c5ccccc5cc(c4c23)C1O (stereo not drawn) [B[a]P-4,5-diol, 4,5-dihydroxy-4,5-dihydrobenzo[a]pyrene] |  |  |  | 23 ± 10 µM |  |  |  |  |  |
| c1cc2c3c(cccc3c1)CC2 [acenaphthene] | <10 units/min/nmol P450 | <10 units/min/nmol P450 | <10 units/min/nmol P450 | > 20 µM | 0.48 ± 0.1 µM |  |  | 1.2 ± 0.21 µM | ΔAmax/ Ks ([6]; P450 2A6, Type I spectra): 0.057; ΔAmax ([6]; P450 2A6, Type I spectra, ± SE): 0.068 ± 0.002; spectral interaction with P450 2A6 (Type I binding spectra) ([6]; result in words): interacted; ΔAmax/ Ks ([5]; P450 2A13, Type I spectra): 0.15; ΔAmax [5, 9]: 0.074 ± 0.005 |
| Nc1ccc2cc3ccccc3cc2c1 [2-AA, 2-aminoanthracene] | 1900 ± 210 units/min/nmol P450 | 560 ± 40 units/min/nmol P450 | 1200 ± 89 units/min/nmol P450 | 33 ± 36 µM | > 20 µM | 0.0026 | 0.085 ± 0.076 | > 20 µM |  |
| aflatoxin B1 [AFB1] |  |  |  |  |  |  |  |  | Kd ([6]; read-out: Ks, pH 7.4): > 20 µM; Kd ([5]; read-out: Ks, pH 7.4): > 20 µM |
| OC1C=C2c3ccccc3-c3cccc(c32)C1O (stereo not drawn) [FA-2,3-diol, 2,3-dihydroxy-2,3-dihydrofluoranthene] | 30 ± 11 units/min/nmol P450 | 88 ± 13 units/min/nmol P450 | 36 ± 8 units/min/nmol P450 | 7.4 ± 1.3 µM | 0.86 ± 0.16 µM | 0.0058 | 0.043 ± 0.003 |  | ΔAmax/ Ks ([5]; P450 2A13, Type I spectra): 0.060; ΔAmax [5, 9]: 0.052 ± 0.003 |
| Cn1c(N)nc2ncc(-c3ccccc3)cc21 [PhIP, 2-amino-1-methyl-6-phenylimidazo[4,5-b]pyridine] | <10 units/min/nmol P450 | <10 units/min/nmol P450 | <10 units/min/nmol P450 | > 20 µM |  |  |  |  |  |
| Cn1c(N)nc2c3cccnc3ccc21 [IQ, 2-amino-3-methylimiidazo[4,5-f]quinoline] | 220 ± 29 units/min/nmol P450 | 430 ± 40 units/min/nmol P450 | 75 ± 11 units/min/nmol P450 |  |  |  |  |  |  |
| c1ccc2c(c1)ccc1c3ccccc3ccc21 [chrysene] |  |  |  | > 20 µM | > 20 µM |  |  |  |  |
| c1ccc2cc3c(ccc4ccccc43)cc2c1 [B[a]A, benz[a]anthracene] |  |  |  |  |  |  |  |  | Kd ([4]; read-out: Ks, P450 1B1, Reverse Type I spectra, 1.0 µM P450, pH 7.4, ± SE): > 20 µM; Kd ([5]; read-out: Ks, P450 2A13, Type I spectra, 1.0 µM P450, pH 7.4, ± SE): > 20 µM |
| Cc1cc2ccccc2c2ccc3ccccc3c12 [5-methylchrysene] |  |  |  | 6.9 ± 2.4 µM | > 20 µM | 0.0064 | 0.044 ± 0.008 |  |  |
| O=[N+]([O-])c1ccc2ccc3cccc4ccc1c2c34 [1-nitropyrene] | <10 units/min/nmol P450 | <10 units/min/nmol P450 | <10 units/min/nmol P450 |  | 0.23 ± 0.08 µM | 0.026 | 0.037 ± 0.001 | > 20 µM | Kd ([4]; human, pH 7.4): 1.4 ± 0.001 µM; ΔAmax/ Ks ([5]; P450 2A13, Type I spectra): 0.24; ΔAmax [5, 9]: 0.055 ± 0.004 |
| Nc1ccc2c(c1)Cc1ccccc1-2 [2-AF, 2-aminofluorene] |  |  |  | 4.6 ± 1.3 µM | > 20 µM |  |  | > 20 µM |  |
